From ChEMBL document CHEMBL3044901, “Synthesis and insecticidal activity of N-oxydihydropyrroles: 4-hydroxy-3-mesityl-5,5-dimethyl derivatives with various substituents at the 1-position” (Biosci Biotechnol Biochem, 2002) come the findings set out here.

One series concerns Cucumis sativus. In words: Phytotoxicity against Cucumis sativus (cucumber) exposed to compound spraying at […] measured 7 days post compound treatment by post-emergence glasshouse test. It counts as organism-based. The following applies: in vivo, other, 168 h.
The next series has as its system Oryza sativa. The experiment in a line: Phytotoxicity against Oryza sativa exposed to compound spraying at […] measured 7 days post compound treatment by post-emergence glasshouse test. It counts as organism-based. The following applies: in vivo, other, 168 h.
The subject of series [1] is Myzus persicae. In words: Insecticidal activity against Myzus persicae (green peach aphid) infested Brassica campestris stems followed by leaf exposure to test compound spraying assessed as insect mortality at 1 ppm measured 5 days post compound treatment by contact exposure test. The following applies: 120 h. Format: functional.
In series [2] the test system is Nilaparvata lugens. The experiment in a line: Insecticidal activity against Nilaparvata lugens (brown planthopper) third-instar larvae reared on rice seedlings assessed as insect mortality at 10 ppm measured 5 days post compound treatment by systemic exposure test. The following applies: 120 h. It counts as functional.
Series [3] has as its system Myzus persicae. In words: Insecticidal activity against Myzus persicae (green peach aphid) infested Brassica campestris stems followed by leaf exposure to test compound spraying assessed as insect mortality at 10 ppm measured 5 days post compound treatment by contact exposure test. It counts as functional. To be noted: 120 h.
Series [4] has as its system Myzus persicae. The experiment in a line: Insecticidal activity against Myzus persicae (green peach aphid) infested Brassica campestris stems followed by cut stem exposure to test compound assessed as insect mortality at 0.1 ppm measured 5 days post compound treatment by systemic exposure test. To be noted: 120 h. Format: functional.
For series [5], the system named is Myzus persicae. The experiment in a line: Insecticidal activity against Myzus persicae (green peach aphid) infested Brassica campestris stems followed by cut stem exposure to test compound assessed as insect mortality at 1 ppm measured 5 days post compound treatment by systemic exposure test. Format: functional. To be noted: 120 h.
In series [6] the test system is Nilaparvata lugens. In words: Insecticidal activity against Nilaparvata lugens (brown planthopper) third-instar larvae contacted with rice stems pre-exposed to compound assessed as insect mortality at 1 ppm measured 5 days post insect release by contact exposure test. It counts as functional. The following applies: 120 h.
Series [7] has as its system Nilaparvata lugens. In words: Insecticidal activity against Nilaparvata lugens (brown planthopper) third-instar larvae contacted with rice stems pre-exposed to compound assessed as insect mortality at 10 ppm measured 5 days post insect release by contact exposure test. It counts as functional. To be noted: 120 h.
Series [8] concerns Nilaparvata lugens. The experiment in a line: Insecticidal activity against Nilaparvata lugens (brown planthopper) third-instar larvae reared on rice seedlings assessed as insect mortality at 1 ppm measured 5 days post compound treatment by systemic exposure test. The following applies: 120 h. Format: functional.

As usually defined, the mortality is the percentage killed. Turning to `COCCON1C(=O)C(c2c(C)cc(C)cc2C)=C(O)C1(C)C`, the Phytotoxicity in the series with Cucumis sativus was found to be 60%; with Oryza sativa, 90%. The mortality at 1 ppm in the series on Myzus persicae [1] worked out at 0%; in the series with Myzus persicae [5], 100%; in the series with Nilaparvata lugens [6] it was 30%; with Nilaparvata lugens [8] it was 90%. Further, the mortality at 10 ppm in the series with Nilaparvata lugens [2], with Myzus persicae [3] and in the series on Nilaparvata lugens [7] was 90% throughout. Also, the mortality at 0.1 ppm in the series on Myzus persicae [4] turned out to be 100%.
Regarding `COC(=O)ON1C(=O)C(c2c(C)cc(C)cc2C)=C(OC(=O)CC(C)(C)C)C1(C)C`, the Phytotoxicity in the series on Cucumis sativus came to 0%; with Oryza sativa, 60%. The mortality at 1 ppm was found to be 0% with Myzus persicae [1], 0% with Myzus persicae [5], 60% in the series on Nilaparvata lugens [6] and 30% with Nilaparvata lugens [8]. For the same molecule, the mortality at 10 ppm in the series with Myzus persicae [3] turned out to be 0%. Also, in the series with Myzus persicae [4], the mortality at 0.1 ppm came to 0%.
Take `CCON1C(=O)C(c2c(C)cc(C)cc2C)=C(O)C1(C)C`: the Phytotoxicity in the series on Cucumis sativus is reported as 0%; with Oryza sativa, 100%. Besides, the mortality at 1 ppm in the series on Myzus persicae [1] was found to be 0%; in the series with Myzus persicae [5] it was 100%; in the series with Nilaparvata lugens [6] it was 60%; with Nilaparvata lugens [8], 60%. Further, the values for the mortality at 10 ppm with Nilaparvata lugens [2], with Myzus persicae [3] and in the series with Nilaparvata lugens [7] were 90%, 0% and 100%, respectively. Further, the mortality at 0.1 ppm with Myzus persicae [4] worked out at 60%.
Turning to `Cc1cc(C)c(C2=C(OC(=O)CC(C)(C)C)C(C)(C)N(OC(=O)C(C)(C)C)C2=O)c(C)c1`, the Phytotoxicity in the series on Cucumis sativus and in the series with Oryza sativa was 0% throughout. For the same molecule, the mortality at 1 ppm amounted to 0% in the series on Myzus persicae [1], 0% in the series on Myzus persicae [5], 0% in the series with Nilaparvata lugens [6] and 30% with Nilaparvata lugens [8]. Besides, the mortality at 10 ppm in the series with Myzus persicae [3] was 0%. For the same molecule, the mortality at 0.1 ppm in the series with Myzus persicae [4] came to 0%.
As for `C=CCON1C(=O)C(c2c(C)cc(C)cc2C)=C(O)C1(C)C`, the Phytotoxicity in the series with Cucumis sativus worked out at 0%; in the series on Oryza sativa, 100%. Besides, the mortality at 1 ppm with Myzus persicae [1] is 0%; with Myzus persicae [5] it was 100%; in the series on Nilaparvata lugens [6], 60%; in the series on Nilaparvata lugens [8], 60%. Besides, the mortality at 10 ppm was found to be 100% in the series on Nilaparvata lugens [2], 100% with Myzus persicae [3] and 90% in the series with Nilaparvata lugens [7]. For the same molecule, the mortality at 0.1 ppm in the series on Myzus persicae [4] turned out to be 60%.
For `C#CCON1C(=O)C(c2c(C)cc(C)cc2C)=C(O)C1(C)C`, the Phytotoxicity with Cucumis sativus is recorded as 0%; with Oryza sativa, 100%. Besides, the mortality at 1 ppm with Myzus persicae [1] came out at 0%; with Myzus persicae [5] it was 100%; in the series with Nilaparvata lugens [6] it was 60%; with Nilaparvata lugens [8] it was 90%. For the same molecule, the mortality at 10 ppm in the series on Nilaparvata lugens [2] was 90%; in the series with Myzus persicae [3], 90%; with Nilaparvata lugens [7], 100%. The mortality at 0.1 ppm in the series with Myzus persicae [4] came to 60%.
For `Cc1cc(C)c(C2=C(OC(=O)CC(C)(C)C)C(C)(C)N(OCC#N)C2=O)c(C)c1`, the values for the Phytotoxicity in the series on Cucumis sativus and with Oryza sativa were 60% and 0%, respectively. The mortality at 1 ppm in the series with Myzus persicae [1] stood at 0%; in the series with Myzus persicae [5], 100%; with Nilaparvata lugens [6], 90%; in the series on Nilaparvata lugens [8] it was 60%. Besides, the mortality at 10 ppm in the series on Nilaparvata lugens [2], in the series on Myzus persicae [3] and in the series on Nilaparvata lugens [7] was 100% in each case. Further, the mortality at 0.1 ppm with Myzus persicae [4] worked out at 0%.
As to `CON1C(=O)C(c2c(C)cc(C)cc2C)=C(O)C1(C)C`, the figures for the Phytotoxicity in the series with Cucumis sativus and with Oryza sativa were 60% and 100%, respectively. Further, the mortality at 1 ppm was 0% with Myzus persicae [1], 100% in the series on Myzus persicae [5], 30% with Nilaparvata lugens [6] and 100% with Nilaparvata lugens [8]. The mortality at 10 ppm was determined as 100% in the series on Nilaparvata lugens [2], 60% in the series with Myzus persicae [3] and 90% in the series on Nilaparvata lugens [7]. The mortality at 0.1 ppm in the series on Myzus persicae [4] was 0%.
Take `CSCON1C(=O)C(c2c(C)cc(C)cc2C)=C(O)C1(C)C`: the values for the Phytotoxicity in the series on Cucumis sativus and in the series on Oryza sativa were 0% and 90%, respectively. Also, the mortality at 1 ppm in the series on Myzus persicae [1] turned out to be 0%; in the series on Myzus persicae [5], 90%; with Nilaparvata lugens [6] it was 30%; in the series with Nilaparvata lugens [8] it was 30%. The mortality at 10 ppm turned out to be 100% in the series on Nilaparvata lugens [2], 0% in the series with Myzus persicae [3] and 30% with Nilaparvata lugens [7]. In addition, the mortality at 0.1 ppm in the series with Myzus persicae [4] is 30%.
Consider `CC(=O)ON1C(=O)C(c2c(C)cc(C)cc2C)=C(OC(=O)CC(C)(C)C)C1(C)C`, for which the Phytotoxicity turned out to be 0% in the series on Cucumis sativus and 60% in the series with Oryza sativa. The mortality at 1 ppm in the series on Myzus persicae [1] came to 0%; in the series on Myzus persicae [5] it was 0%; with Nilaparvata lugens [6], 60%; in the series with Nilaparvata lugens [8] it was 30%. Besides, in the series with Myzus persicae [3], the mortality at 10 ppm turned out to be 0%. The mortality at 0.1 ppm in the series on Myzus persicae [4] is 0%.
As for `Cc1cc(C)c(C2=C(OC(=O)CC(C)(C)C)C(C)(C)N(OC(=O)CC(C)(C)C)C2=O)c(C)c1`, the Phytotoxicity with Cucumis sativus and in the series with Oryza sativa was 0% each time. Besides, the mortality at 1 ppm in the series on Myzus persicae [1], in the series with Myzus persicae [5], with Nilaparvata lugens [6] and in the series on Nilaparvata lugens [8] was 0% throughout. Besides, the mortality at 10 ppm with Myzus persicae [3] was 60%. In addition, the mortality at 0.1 ppm in the series on Myzus persicae [4] stood at 0%.
As to `Cc1cc(C)c(C2=C(OC(=O)CC(C)(C)C)C(C)(C)N(OS(C)(=O)=O)C2=O)c(C)c1`, the Phytotoxicity in the series with Cucumis sativus and with Oryza sativa was 0% each time. For the same molecule, the mortality at 1 ppm in the series on Myzus persicae [1], with Myzus persicae [5], with Nilaparvata lugens [6] and with Nilaparvata lugens [8] was 0% throughout. In addition, the mortality at 10 ppm in the series on Myzus persicae [3] stood at 0%. Further, the mortality at 0.1 ppm in the series with Myzus persicae [4] stood at 0%.
As to `Cc1cc(C)c(C2=C(OC(=O)CC(C)(C)C)C(C)(C)N(OC(=O)N(C)C)C2=O)c(C)c1`, the Phytotoxicity in the series on Cucumis sativus and with Oryza sativa was 0% in each case. Besides, the mortality at 1 ppm in the series with Myzus persicae [1] came to 0%; in the series on Myzus persicae [5], 0%; in the series with Nilaparvata lugens [6], 0%; in the series with Nilaparvata lugens [8], 30%. Moreover, in the series with Myzus persicae [3], the mortality at 10 ppm stood at 0%. In the series on Myzus persicae [4], the mortality at 0.1 ppm was determined as 0%.
With `COCON1C(=O)C(c2c(C)cc(C)cc2C)=C(OC(=O)CC(C)(C)C)C1(C)C`, the results for the Phytotoxicity in the series on Cucumis sativus and in the series on Oryza sativa were 90% and 100%, respectively. The mortality at 1 ppm in the series with Myzus persicae [1] was found to be 100%; in the series on Myzus persicae [5] it was 100%; in the series on Nilaparvata lugens [6] it was 30%; with Nilaparvata lugens [8], 30%. In addition, the mortality at 10 ppm with Myzus persicae [3] and with Nilaparvata lugens [7] was 100% each time. The mortality at 0.1 ppm with Myzus persicae [4] was 100%.
On to `Cc1cc(C)c(C2=C(O)C(C)(C)N(O)C2=O)c(C)c1`, for which the Phytotoxicity is on record as 60% with Cucumis sativus and 90% with Oryza sativa. Further, the mortality at 1 ppm was 0% in the series on Myzus persicae [1], 100% in the series on Myzus persicae [5], 0% in the series with Nilaparvata lugens [6] and 0% with Nilaparvata lugens [8]. Also, the mortality at 10 ppm in the series with Myzus persicae [3] was 60%; with Nilaparvata lugens [7], 0%. For the same molecule, the mortality at 0.1 ppm in the series on Myzus persicae [4] is 0%.
